# ChEMBL document CHEMBL4304782, “Antioxidant, Anti-inflammatory, and Neuroprotective Effects of Novel Vinyl Sulfonate Compounds as Nrf2 Activator” (ACS Med Chem Lett, 2019)
# Molecular target: T1, Nuclear factor erythroid 2-related factor 2 (Homo sapiens, UniProt Q16236)
# T1 sequence (Q16236 whole entry): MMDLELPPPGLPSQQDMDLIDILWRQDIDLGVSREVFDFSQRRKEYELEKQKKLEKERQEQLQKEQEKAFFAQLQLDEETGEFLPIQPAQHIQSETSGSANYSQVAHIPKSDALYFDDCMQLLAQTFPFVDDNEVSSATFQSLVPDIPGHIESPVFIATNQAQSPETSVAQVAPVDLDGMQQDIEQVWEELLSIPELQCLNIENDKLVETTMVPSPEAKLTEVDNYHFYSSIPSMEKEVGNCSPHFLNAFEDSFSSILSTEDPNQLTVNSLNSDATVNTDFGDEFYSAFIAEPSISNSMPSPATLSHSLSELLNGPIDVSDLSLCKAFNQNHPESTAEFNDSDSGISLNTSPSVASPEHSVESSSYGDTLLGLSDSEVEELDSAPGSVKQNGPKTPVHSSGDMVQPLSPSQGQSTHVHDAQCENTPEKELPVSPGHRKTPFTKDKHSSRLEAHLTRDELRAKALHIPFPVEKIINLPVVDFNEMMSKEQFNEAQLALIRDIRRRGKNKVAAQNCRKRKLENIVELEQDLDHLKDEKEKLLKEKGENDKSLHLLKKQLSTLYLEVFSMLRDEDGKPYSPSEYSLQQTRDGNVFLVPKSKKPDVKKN
# Assay: Activation of ED-tagged Nrf2 in human U2OS cells co-expressing Keap1 assessed as induction of NRF2 translocation to nucleus after 6 hrs by beta-galactosidase based chemiluminescent assay
# Type: cell-based
smiles,measurement,value
COc1cccc(OS(=O)(=O)/C=C/c2ccc(Cl)cc2)c1,EC50,1780 nM
